The subject of test [1] is Barnyard grass (ECHCG, Echinochloa crus-galli Beauv. var. caudata Kitagawa). Briefly: Leaf treatment test, herbicidal activity on barnyard grass. Type of test: in vivo. The procedure: (§1) Experimental Example 1: Leaf Treatment Test
Seeds of rice, wheat, barley, corn, cotton, barnyard grass, common sorgum, large crabgrass and fall panicum were seeded at a pot with a surface area of 600 cm^2. […], wettable powder prepared by mixing 1 part by weight of the active compound, 5 parts by weight of acetone and 1 part by weight of emulsifier and diluted with water was applied directly to the leaves in 2000 L per hectare. The concentration of the spray liquid was so chosen the particular amounts of the active compound desired. 14 days after the treatment, the degree of damage to the plants was rated in % damage in comparison to the development of untreated control.

Test [2] relates to Rice (ORYSA, Oryza sativa L. cv. Dongjin). Kind of test: Leaf treatment test, damage to rice. In kind it is in vivo. The procedure:
as §1
Seeds of rice, wheat, barley, corn, cotton, barnyard grass, common sorgum, large crabgrass and fall panicum were seeded at a pot with a surface area of 600 cm^2. When barnyard grass grown in a green house kept at 20-30° C. had three leaves, wettable powder prepared by mixing 1 part by weight of the active compound, 5 parts by weight of acetone and 1 part by weight of emulsifier and diluted with water was applied directly to the leaves in 2000 L per hectare. The concentration of the spray liquid was so chosen the particular amounts of the active compound desired. 14 days after the treatment, the degree of damage to the plants was rated in % damage in comparison to the development of untreated control.

The mark [3] stands for this setting: leaf treatment 2 g/ha, 14 days after treatment.
Where [4] appears, read: leaf treatment 4 g/ha, 14 days after treatment.
Where [5] appears, read: leaf treatment 8 g/ha, 14 days after treatment.
Setting [6] is: leaf treatment 16 g/ha, 14 days after treatment.
Where [7] appears, read: leaf treatment 32 g/ha, 14 days after treatment.
The mark [8] stands for this setting: leaf treatment 63 g/ha, 14 days after treatment.
[9] abbreviates: leaf treatment 125 g/ha, 14 days after treatment.
Setting [10] is: leaf treatment 250 g/ha, 14 days after treatment.
Setting [11] is: leaf treatment 500 g/ha, 14 days after treatment.
[12] abbreviates: leaf treatment 1000 g/ha, 14 days after treatment.
The mark [13] stands for this setting: leaf treatment 2000 g/ha, 14 days after treatment.
Setting [14] is: leaf treatment 4000 g/ha, rated 14 days after treatment vs untreated control, 0% no effect, 100% total destruction.

Consider `CC(Oc1ccc(Oc2nc3ccc(Cl)cc3o2)cc1)C(=O)N(C)c1ccccc1F` (racemic) [R,S-racemic compound], for which the “% damage, Barnyard grass (4 leaves)” value in test [1] (setting [3]) came out at 0.0%; in test [1] (setting [4]), 2.5%; in test [1] (setting [5]), 45.0%; in test [1] (setting [6]) it was 100%; in test [1] (setting [7]) it was 100%; in test [1] (setting [8]), 100%. Moreover, the “% damage, Barnyard grass (4 leaves)” value in test [1] (setting [9]), in test [1] (setting [10]), in test [1] (setting [11]), in test [1] (setting [12]), in test [1] (setting [13]) and in test [1] (setting [14]) was 100% in each case. Further, the “% damage, Rice (4 leaves)” value in test [2] (setting [3]), in test [2] (setting [4]), in test [2] (setting [5]), in test [2] (setting [6]), in test [2] (setting [7]) and in test [2] (setting [8]) was 0.0% throughout. Besides, the “% damage, Rice (4 leaves)” value in test [2] (setting [9]) was 0.0%; in test [2] (setting [10]), 0.0%; in test [2] (setting [11]) it was 0.0%; in test [2] (setting [12]) it was 0.0%; in test [2] (setting [13]) it was 0.0%; in test [2] (setting [14]) it was 3.8%.
Take `C[C@@H](Oc1ccc(Oc2nc3ccc(Cl)cc3o2)cc1)C(=O)N(C)c1ccccc1F` [(R)-compound, (R)-2-[4-(6-chloro-2-benzoxazolyloxy)-phenoxy]propionic acid-N-(2-fluorophenyl)-N-methyl amide]: the “% damage, Barnyard grass (4 leaves)” value in test [1] (setting [3]) came to 6.3%; in test [1] (setting [4]), 62.5%; in test [1] (setting [5]), 98.8%; in test [1] (setting [6]), 100%; in test [1] (setting [7]), 100%; in test [1] (setting [8]), 100%. The “% damage, Barnyard grass (4 leaves)” value in test [1] (setting [9]), in test [1] (setting [10]), in test [1] (setting [11]), in test [1] (setting [12]), in test [1] (setting [13]) and in test [1] (setting [14]) was 100% in each case. Moreover, the “% damage, Rice (4 leaves)” value in test [2] (setting [3]), in test [2] (setting [4]), in test [2] (setting [5]), in test [2] (setting [6]), in test [2] (setting [7]) and in test [2] (setting [8]) was 0.0% each time. Moreover, the “% damage, Rice (4 leaves)” value in test [2] (setting [9]) worked out at 0.0%; in test [2] (setting [10]), 0.0%; in test [2] (setting [11]), 0.0%; in test [2] (setting [12]) it was 2.5%; in test [2] (setting [13]), 11.3%; in test [2] (setting [14]) it was 22.5%.
As for `C[C@H](Oc1ccc(Oc2nc3ccc(Cl)cc3o2)cc1)C(=O)N(C)c1ccccc1F` [(S)-compound], the “% damage, Barnyard grass (4 leaves)” value in test [1] (setting [3]) came to 0.0%; in test [1] (setting [4]) it was 0.0%; in test [1] (setting [5]), 7.5%; in test [1] (setting [6]), 65.0%; in test [1] (setting [7]) it was 92.5%; in test [1] (setting [8]), 100%. Further, the “% damage, Barnyard grass (4 leaves)” value in test [1] (setting [9]), in test [1] (setting [10]), in test [1] (setting [11]), in test [1] (setting [12]), in test [1] (setting [13]) and in test [1] (setting [14]) was 100% in each case. Also, the “% damage, Rice (4 leaves)” value in test [2] (setting [3]), in test [2] (setting [4]), in test [2] (setting [5]), in test [2] (setting [6]), in test [2] (setting [7]) and in test [2] (setting [8]) was 0.0% throughout. Besides, the “% damage, Rice (4 leaves)” value in test [2] (setting [9]), in test [2] (setting [10]), in test [2] (setting [11]), in test [2] (setting [12]), in test [2] (setting [13]) and in test [2] (setting [14]) was 0.0% each time.
